Experiments:
system Xc^− [1] = target: T1, system Xc^− (Homo sapiens, UniProt Q9UPY5); assay: [^14C]L-Cystine uptake assay; type: cell-based; design: endogenous in cells; host or cells: H4 cells; settings: H4 cells, sodium-free HEPES buffer, 0.5 μM L-[14C]Cystine and 4.5 μM L-Cystine, 1 hour at 37° C.; read-out: pIC50 [^14C] L-Cystine uptake assay (converted)
T1 sequence (Q9UPY5 1-501): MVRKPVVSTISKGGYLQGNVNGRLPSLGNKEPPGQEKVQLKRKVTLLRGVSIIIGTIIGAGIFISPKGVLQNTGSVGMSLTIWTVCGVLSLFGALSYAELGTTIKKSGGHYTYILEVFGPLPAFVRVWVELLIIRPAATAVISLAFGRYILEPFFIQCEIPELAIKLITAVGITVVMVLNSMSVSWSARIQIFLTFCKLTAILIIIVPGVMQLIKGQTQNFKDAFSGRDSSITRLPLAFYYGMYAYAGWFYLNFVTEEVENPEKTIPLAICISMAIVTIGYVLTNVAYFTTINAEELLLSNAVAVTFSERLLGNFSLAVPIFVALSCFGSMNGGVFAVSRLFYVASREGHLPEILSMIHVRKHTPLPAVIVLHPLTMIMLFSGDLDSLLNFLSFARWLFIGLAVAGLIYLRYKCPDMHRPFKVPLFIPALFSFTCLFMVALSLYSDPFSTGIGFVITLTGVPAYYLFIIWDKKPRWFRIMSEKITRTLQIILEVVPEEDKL
T1 sequence (P08195 1-529 partner): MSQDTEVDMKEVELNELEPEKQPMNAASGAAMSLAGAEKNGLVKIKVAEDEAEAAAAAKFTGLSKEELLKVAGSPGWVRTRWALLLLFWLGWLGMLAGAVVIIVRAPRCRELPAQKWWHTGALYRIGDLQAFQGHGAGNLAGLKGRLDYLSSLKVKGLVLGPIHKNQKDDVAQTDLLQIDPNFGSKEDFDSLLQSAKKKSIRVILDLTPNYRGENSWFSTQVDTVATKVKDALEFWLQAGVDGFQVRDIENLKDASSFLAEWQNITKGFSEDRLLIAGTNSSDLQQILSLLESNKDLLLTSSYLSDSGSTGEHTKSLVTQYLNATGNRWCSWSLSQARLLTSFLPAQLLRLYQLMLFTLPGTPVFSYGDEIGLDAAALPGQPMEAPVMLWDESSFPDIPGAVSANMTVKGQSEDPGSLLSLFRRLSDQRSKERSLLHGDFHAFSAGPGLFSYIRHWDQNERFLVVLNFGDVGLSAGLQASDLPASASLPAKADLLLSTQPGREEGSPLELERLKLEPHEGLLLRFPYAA
Text: (§1) The effect of compounds of Formula (I) on the system Xc^− functionality was examined in two independent cell assays: (i) measurement of cystine-induced glutamate release; and (ii) measurement of [^14C]L-Cystine uptake.
(§2) As described above, System Xc^−, also known as the cystine/glutamate antiporter, is an amino acid transporter that mediates the extrusion of intracellular L-glutamate outside the cell and the uptake of extracellular L-cystine into the cell.
(§3) By measuring respectively, the concentration of glutamate released outside the cell and the L-cystine uptaken in the cell, with increasing concentrations of compounds of formula (I) according to the present invention, the efficacy of said compounds to inhibit the System Xc^− function can be evaluated.
(§4) The efficacy of the compounds to inhibit system Xc^− is represented by measuring the IC50 which corresponds to the concentration of compound necessary to inhibit 50% of the signals from the two control groups; DMSO 1% and Erastin 50 μM in the respective assays. pIC50 values correspond to −log of the IC50 in Molar.
In this assay, the medium is devoid of sodium to prevent the transport of glutamate by sodium-dependent excitatory amino acid transporters (EAATs). H4 cells were plated on a 96-well CytoStar-T scintillating microplate (PerkinElmer) at 5×10^4 cells/well in the medium described above. After 1 day, cells were washed one time with the sodium-free HEPES buffer and preincubated with test compounds of Formula (I) (1% final DMSO) for 15 min. Uptake was initiated by adding 0.5 μM L-[1,2, 1′,2′-^14C]Cystine (0.02 mCi/mL, PerkinElmer, Waltham, US) and 4.5 μM L-Cystine (Sigma-Aldrich). After 1 hour at 37° C., plates were counted in a MicroBeta^2 microplate counter (PerkinElmer).

system Xc^− [2] = target: T1, system Xc^−; assay: Cystine-induced glutamate release assay; type: cell-based; design: endogenous in cells; host or cells: H4 cells; settings: H4 cells, sodium-free HEPES buffer, 50 μM L-Cystine, 2 hours, Amplex Red glutamate readout; read-out: pIC50 Cystine-induced glutamate release assay (converted)
Text: as §1, §2, §3, §4
Measurement of cystine-induced glutamate release indicates levels of glutamate (outside of the cell) that are dependent on system Xc^− antiporter function. Upon the addition of L-Cystine to H4 cells, intracellular glutamate is counter-transported and exported in the supernatant.
In this assay, the medium is devoid of sodium to prevent the transport of glutamate by sodium-dependent excitatory amino acid transporters (EAATs). H4 cells were plated on 384-well culture plate at 1×10^4 cells/well in Dulbecco's Modified Eagle Medium (DMEM) with L-glutamine, penicillin/streptomycin and 10% fetal bovine serum (all from ThermoFisher Scientific) and incubated in a humidified CO2 incubator at 37° C. After 2 days, cells were washed 4 times with prewarmed sodium-free HEPES buffer (contents in mM: HEPES 10, KCl 5.4, CaCl2 2.5, MgCl2 1, KH2PO4 0.4, D-Glucose 5, Choline chloride 140), pH 7.4. Glutamate release was induced by addition of 50 μM of L-Cystine (Sigma-Aldrich), together with a test compound of Formula (I) at 1% final DMSO concentration. After 2 hours of incubation in the culture incubator, supernatants were transferred to a low-binding polypropylene 384-well plate to determine L-glutamate concentration using Amplex™ Red Glutamic Acid Assay Kit (ThermoFisher Scientific). Briefly, 10 μL of Amplex™ Red working solution was added to 10 μL of the supernatant, then the mixture was incubated for 30 min at 37° C. Fluorescence intensity was measured by EnVision microplate reader (PerkinElmer).

SMILES	IC50 (system Xc^− [1]) [nM]	IC50 (system Xc^− [2]) [nM]
Cc1cc2c(c(Cl)n1)-c1cccnc1C(C)C(=O)N2CC(=O)Nc1ccc(C(F)F)cc1 (single isomer, unassigned) [#116, 2-[3-chloro-5,10-dimethyl-9-oxo-4,8,12-triazatricyclo[9.4.0.0^2,7]pentadeca-1(11),2(7),3,5,12,14-hexaen-8-yl]-N-[4-(difluoromethyl)phenyl]acetamide]	< 15.8	< 15.8
Cc1cc2c(c(Cl)n1)-c1cccnc1C(C)C(=O)N2CC(=O)Nc1ccc(Cl)c(F)c1 (single isomer, unassigned) [#117, 2-[3-chloro-5,10-dimethyl-9-oxo-4,8,12-triazatricyclo[9.4.0.0^2,7]pentadeca-1(15),2(7),3,5,11,13-hexaen-8-yl]-N-(4-chloro-3-fluorophenyl)acetamide]	< 15.8	< 15.8
Cc1cc2c(n(C)c1=O)-c1ccccc1C(C)C(=O)N2CC(=O)Nc1ccc(C(F)(F)F)cc1 (single isomer, unassigned) [#121, N-[4-(trifluoromethyl)phenyl]-2-[1,3,7-trimethyl-2,6-dioxo-7H-pyrido[3,2-d][3]benzazepin-5-yl]acetamide]	< 15.8	< 15.8
Cc1cc2c(c(F)n1)-c1cccnc1[C@@H](C)C(=O)N2CC(=O)Nc1ccc(C2CC2(F)F)cc1 (single isomer, unassigned) [#146]	100 to 501	39.8 to 100
Cc1cc2c(c(C#N)n1)-c1cccnc1C(C)C(=O)N2CC(=O)Nc1ccc(Cl)c(F)c1 (single isomer, unassigned) [#155, N-(4-chloro-3-fluoro-phenyl)-2-[3-cyano-5,10-dimethyl-9-oxo-4,8,12-triazatricyclo[9.4.0.0^2,7]pentadeca-1(11),2(7),3,5,12,14-hexaen-8-yl]acetamide]	< 15.8	< 15.8
Cc1cc2c(c(O)n1)-c1cccnc1C(C)C(=O)N2CC(=O)Nc1ccc(C(F)(F)F)cc1 (single isomer, unassigned) [#161, 2-(3-hydroxy-5,10-dimethyl-9-oxo-4,8,12-triazatricyclo[9.4.0.0^2,7]pentadeca-1(11),2(7),3,5,12,14-hexaen-8-yl)-N-[4-(trifluoromethyl)phenyl]acetamide]	15.8 to 39.8	15.8 to 39.8
COCCOc1nc(C)cc2c1-c1cccnc1C(C)C(=O)N2CC(=O)Nc1ccc(C(F)(F)F)cc1 (single isomer, unassigned) [#162, 2-[3-(2-methoxyethoxy)-5,10-dimethyl-9-oxo-4,8,12-triazatricyclo[9.4.0.0^2,7]pentadeca-1(11),2(7),3,5,12,14-hexaen-8-yl]-N-[4-(trifluoromethyl)phenyl]acetamide]	15.8 to 39.8	15.8 to 39.8
Cc1cc2c(c(=O)n1C)-c1ccc(F)cc1C(C)C(=O)N2CC(=O)Nc1ccc(Cl)c(F)c1 (single isomer, unassigned) [#174, N-(4-chloro-3-fluoro-phenyl)-2-(9-fluoro-2,3,7-trimethyl-1,6-dioxo-7H-pyrido[4,3-d][3]benzazepin-5-yl)acetamide]	< 15.8	< 15.8
Cc1cc2c(c(=O)n1C)-c1ccccc1C(C)C(=O)N2CC(=O)Nc1ccc(C(F)F)cc1 (single isomer, unassigned) [#175, N-[4-(difluoromethyl)phenyl]-2-(2,3,7-trimethyl-1,6-dioxo-7H-pyrido[4,3-d][3]benzazepin-5-yl)acetamide]	< 15.8	< 15.8
O=C(CN1C(=O)C(O)c2ncc(F)cc2-c2c(F)cc(F)cc21)Nc1ccc(C(F)F)cc1 (single isomer, unassigned) [#318, N-[4-(difluoromethyl)phenyl]-2-[2,9,11-trifluoro-5-hydroxy-6-oxo-5H-pyrido[2,3-d][1]benzazepin-7-yl]acetamide]		< 15.8
Cc1cc2c(c(C)n1)-c1ccc(C)nc1CC(=O)N2CC(=O)Nc1ccc(C(F)(F)F)cc1 [#70, N-[4-(trifluoromethyl)phenyl]-2-(3,5,13-trimethyl-9-oxo-4,8,12-triazatricyclo[9.4.0.0^2,7]pentadeca-1(11),2(7),3,5,12,14-hexaen-8-yl)acetamide]		39.8 to 100
Cc1cc2c(c(F)n1)-c1cccnc1[C@@H](C)C(=O)N2CC(=O)Nc1cc(F)c(Cl)cc1F [#245, N-(4-chloro-2,5-difluoro-phenyl)-2-[(10R)-3-fluoro-5,10-dimethyl-9-oxo-4,8,12-triazatricyclo[9.4.0.0^2,7]pentadeca-1(15),2,4,6,11,13-hexaen-8-yl]acetamide]		15.8 to 39.8
CC1C(=O)N(CC(=O)Nc2ccc(C(F)F)cc2)c2cc(N3CC(F)(F)C3)nc(Cl)c2-c2cccnc21 (centres unmarked) [#292, 2-[3-chloro-5-(3,3-difluoroazetidin-1-yl)-10-methyl-9-oxo-4,8,12-triazatricyclo[9.4.0.0^2,7]pentadeca-1(15),2,4,6,11,13-hexaen-8-yl]-N-[4-(difluoromethyl)phenyl]acetamide]		< 15.8
COc1ccc2c(c1)N(CC(=O)Nc1ccc(C(F)F)cc1)C(=O)C(C)c1ncccc1-2 (centres unmarked) [#305, N-[4-(difluoromethyl)phenyl]-2-(9-methoxy-5-methyl-6-oxo-5H-pyrido[2,3-d][1]benzazepin-7-yl)acetamide]		39.8 to 100
CC1C(=O)N(CC(=O)Nc2ccc(C(F)F)cc2)c2cc(C(F)F)nc(Cl)c2-c2cccnc21 (centres unmarked) [#338, 2-[3-chloro-5-(difluoromethyl)-10-methyl-9-oxo-4,8,12-triazatricyclo[9.4.0.0^2,7]pentadeca-1(11),2(7),3,5,12,14-hexaen-8-yl]-N-[4-(difluoromethyl)phenyl]acetamide]		< 15.8
O=C(CN1C(=O)Cc2cc(Cl)ccc2-c2c1cc(C1CC1)nc2Cl)Nc1ccc(C(F)F)cc1 [#340, 2-(1,9-dichloro-3-cyclopropyl-6-oxo-7H-pyrido[4,3-d][3]benzazepin-5-yl)-N-[4-(difluoromethyl)phenyl]acetamide]		39.8 to 100
CC1C(=O)N(CC(=O)Nc2ccc(Cl)c(F)c2)c2cc(C3(F)CN(C)C3)nc(Cl)c2-c2cccnc21 (centres unmarked) [#422, 2-[3-chloro-5-(3-fluoro-1-methyl-azetidin-3-yl)-10-methyl-9-oxo-4,8,12-triazatricyclo[9.4.0.0^2,7]pentadeca-1(11),2,4,6,12,14-hexaen-8-yl]-N-(4-chloro-3-fluoro-phenyl)acetamide]		15.8 to 39.8
